In patent publication US20040049072A1, “RXR modulators with improved pharmacologic profile” (priority 1999, published 2004):
“Also recorded” adds a separate entry of the source. Like-named read-outs stand apart in the source and are kept apart here.

Tests used:
RXRα:PPARγ heterodimer = target: T1, RXRα:PPARγ heterodimer (Homo sapiens, UniProt P19793); test: RXR:PPARγ heterodimer co-transfection assay in CV-1 cells; format: cell-based
T1 construct: expressed in transfected cells; host or cells: CV-1 cells
T1 sequence (P19793 1-462): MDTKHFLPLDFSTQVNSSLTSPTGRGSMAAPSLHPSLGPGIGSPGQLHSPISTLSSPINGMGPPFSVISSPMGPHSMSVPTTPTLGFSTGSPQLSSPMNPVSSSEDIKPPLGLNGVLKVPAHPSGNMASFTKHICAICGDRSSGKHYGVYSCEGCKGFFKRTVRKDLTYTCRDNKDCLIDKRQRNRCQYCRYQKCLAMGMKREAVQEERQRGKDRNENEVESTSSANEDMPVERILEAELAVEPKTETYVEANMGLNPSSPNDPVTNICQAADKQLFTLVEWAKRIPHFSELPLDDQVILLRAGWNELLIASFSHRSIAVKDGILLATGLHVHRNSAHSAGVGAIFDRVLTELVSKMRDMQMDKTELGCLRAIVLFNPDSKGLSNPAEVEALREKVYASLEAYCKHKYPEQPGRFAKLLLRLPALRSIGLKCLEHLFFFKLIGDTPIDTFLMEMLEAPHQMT
T1 sequence (P37231 1-505 partner): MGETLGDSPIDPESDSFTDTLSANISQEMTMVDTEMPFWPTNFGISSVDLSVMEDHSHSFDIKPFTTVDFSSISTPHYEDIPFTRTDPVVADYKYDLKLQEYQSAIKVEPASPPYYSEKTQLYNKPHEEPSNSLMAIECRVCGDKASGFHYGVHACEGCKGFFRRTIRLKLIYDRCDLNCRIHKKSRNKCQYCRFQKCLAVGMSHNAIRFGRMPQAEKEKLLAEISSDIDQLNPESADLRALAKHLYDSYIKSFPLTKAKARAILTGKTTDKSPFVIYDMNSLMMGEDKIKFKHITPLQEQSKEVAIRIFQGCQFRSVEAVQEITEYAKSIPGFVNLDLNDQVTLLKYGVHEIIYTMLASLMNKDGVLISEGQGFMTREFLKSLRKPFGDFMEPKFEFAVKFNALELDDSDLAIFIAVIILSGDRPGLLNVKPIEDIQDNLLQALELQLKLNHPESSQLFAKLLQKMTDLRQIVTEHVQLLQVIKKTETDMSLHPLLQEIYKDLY
Method: (§1) For determination of agonist activity in the context of the RXR:RAR heterodimer or the RXR:PPARγ heterodimer, media containing compounds of the present invention in concentrations ranging from 10^−10 to 10^−5 M were added to the cells.
(§2) Compounds of the present invention were also tested for the ability to synergize with a PPARγ agonist in the context of an RXR heterodimer. […] Efficacy of the compounds of the present invention in the agonist and synergy assays was calculated as the maximum response obtained over the range of the dose response curve relative to the maximum response obtained by the reference agonist. Antagonist efficacy was determined as a function (%) of maximal inhibition.
To examine the effects of the compounds of the present invention on the transcriptional properties of the RXR:PPARγ, a heterodimer cotransfection assay as described above was employed.

db/db mouse = db/db mouse study (rodent model of Type II diabetes); conditions: for insulin sensitizing activity with thyroid axis suppression and triglyceride elevations: rodent models of Type II Diabetes; for inhibition in vivo at 30 mg/kg: Mus musculus, po, 168 h, read-out: db/db mouse Glu. (D7); for db/db mouse Trigs. (D3): plasma triglycerides as % of control values, day 3, 30 mg/kg/day
Method: Mice (obtained from Jackson Laboratory), ZDF rats (obtained from Genetic Models Inc.) and fa/fa rats (obtained from either Charles River, or Harlan) were maintained on 12-hour light/dark cycle. […] Compounds were administered at the specified doses by oral gavage on the morning of each day of any experiment. Blood samples were obtained 3 hours after dosing from fed animals under anesthesia and collected into heparinized capillary tubes from the tail vein.
RXRα:RAR heterodimer = target: T2, RXRα:RAR heterodimer (Homo sapiens, UniProt P19793); test: RXR:RAR heterodimer co-transfection assay in CV-1 cells; format: cell-based
T2 construct: expressed in transfected cells; host or cells: CV-1 cells
T2 sequence (P19793 1-462): T1 sequence (P19793 1-462)
Method: as §1, §2
However, when RAR is occupied, typical RXR agonists activate the heterodimer. […] To examine the effects of the compounds of the present invention on the transcriptional properties of the RXR:RAR heterodimer, a heterodimer cotransfection assay as described above was employed.

RXRα = target: T3, RXRα (Homo sapiens, UniProt P19793); test: RXRα binding (competition with tritiated LGD1069)
T3 sequence (P19793 1-462): T1 sequence (P19793 1-462)
Method: Non-specific binding was defined as that binding remaining in the presence of 500 nM of the appropriate unlabelled compound. At the end of the incubation period, bound ligand was separated from free. The amount of bound tritiated retinoid was determined by liquid scintillation counting of an aliquot (700 μL) of the supernatant fluid or the hydroxylapatite pellet.
After correcting for non-specific binding, IC50 values were determined. […] The IC50 value was determined graphically from a log-logit plot of the data. The Ki values were determined by application of the Cheng-Prussof equation to the IC50 values, the labeled ligand concentration and the Kd of the labeled ligand.

RXRα homodimer (RXR:RXR) = target: T4, RXRα homodimer (RXR:RXR) (Homo sapiens, UniProt P19793); test: RXR homodimer co-transfection assay in CV-1 cells; format: cell-based; conditions: CV-1, read-out: RXR:RAR CV-1 (%) Ag.
T4 sequence (P19793 1-462): T1 sequence (P19793 1-462)
Source text: In the co-transfection assay, cloned cDNA for one or more IRs (e.g., human RARα, RXRα, or PPARγ), alone or in combination (i.e. for heterodimer assays) under the control of a constitutive promoter (e.g., the SV 40, RSV or CMV promoter) is introduced by transfection (a procedure to introduce exogenous genes into cells) into a background cell substantially devoid of endogenous IRs. These introduced gene(s) direct the recipient cells to make the IR protein(s) of interest. A further gene is also introduced (co-transfected) into the same cells in conjunction with the IR gene(s). This further gene, comprising the cDNA for a reporter protein, such as firefly luciferase (LUC), controlled by an appropriate hormone responsive promoter containing a hormone response element (HRE). This reporter plasmid functions as a reporter for the transcriptional-modulating activity of the target IR(s). Thus, the reporter acts as a surrogate for the products (mRNA then protein) normally expressed by a gene under control of the target receptor(s) and their native hormone(s).
Exposing the transfected cells to an agonist ligand compound increases reporter activity in the transfected cells. This activity can be conveniently measured, e.g., by increasing luciferase production and enzymatic activity, which reflects compound-dependent, IR-mediated increases in reporter transcription. […] Increasing concentrations of an antagonist will decrease the reporter signal (e.g., luciferase production). The co-transfection assay is therefore useful to detect both agonists and antagonists of specific IRs. Furthermore, it determines not only whether a compound interacts with a particular IR, but whether this interaction mimics (agonizes) or blocks (antagonizes) the effects of native or synthetic regulatory molecules on target gene expression, as well as the specificity and strength of this interaction.
The receptor expression plasmid was cotransfected along with a reporter plasmid at 50 ng/well, the internal control plasmid pRS-β-Gal at 50 ng/well and filler DNA, pGEM, at 90 ng/well.
Six hours after transfection, media was removed and the cells were washed with phosphate-buffered saline (PBS). Media containing compounds of the present invention in concentrations ranging from 10^−10 to 10^−5 M were added to the cells. […] Retinoids were dissolved in dimethylsulfoxide for use in the transcriptional activation assays. Two to three replicates were used for each sample. Transfections and subsequent procedures were performed on a Biomek 1000 automated workstation.
After 40 hours, the cells were washed with PBS, lysed with a detergent-based buffer and assayed for LUC and β-Gal activities using a luminometer or spectrophotometer, respectively. For each replicate, the normalized response (NR) was calculated as: […]
The mean and standard error of the mean (SEM) of the NR were calculated. Data were plotted as the response of the compound compared to the reference compounds over the range of the dose-response curve. […] Antagonist activity was determined by testing the amount of LUC expression in the presence of the RXR agonists described above at the EC50 concentration for such known compounds. […] In addition, the efficacy of antagonists was determined as a function (%) of maximal inhibition.

[1] = CV-1, read-out: RXR:RAR CV-1 (%) Ag.
[2] = Table 2, from IC50 by Cheng-Prussof equation, tritiated LGD1069, read-out: Bind RXRα Ki
[3] = Table 2, maximal response in presence of 100 nM BRL49653 relative to BRL49653 alone

SMILES | insulin sensitizing activity with thyroid axis suppression and triglyceride elevations (db/db mouse) | inhibition in vivo at 30 mg/kg (db/db mouse) | db/db mouse Trigs. (D3) (db/db mouse) | Emax (RXRα:RAR heterodimer; [1]) | Ki (RXRα; [2]) | Emax (RXRα homodimer (RXR:RXR)) | further results
CN(CCOc1ccc(CC2SC(=O)NC2=O)cc1)c1ccccn1 (centres unmarked) [BRL 49653, reference compound] | – | – | – | – | – | – | RXRα:PPARγ Heterodimer Cotransfection Assay Agonist Efficacy (%) (RXRα:PPARγ heterodimer; maximal response relative to response of BRL 49653): 100%
CCCCCOc1c(\C(C)=C/C=C/C(C)=C/C(=O)O)cc(C(C)C)cc1C(C)C [Compound L7] | maintain the desirable insulin sensitizing activity and eliminate or reduce both the suppression of the thyroid axis and triglyceride elevations; also recorded: maintain the desirable insulin sensitizing activity and minimize both the suppression of the thyroid axis and triglyceride elevations | – | – | – | – | – | –
CCCOc1c(C2=C(/C=C/C(C)=C/C(=O)O)CCC2)cc(C(C)C)cc1C(C)C [Compound L8] | maintain the desirable insulin sensitizing activity and minimize both the suppression of the thyroid axis and triglyceride elevations | – | – | – | – | – | –
CCCCOc1c(C2=C(/C=C/C(C)=C/C(=O)O)CCC2)cc(C(C)C)cc1C(C)C [Compound L9] | maintain the desirable insulin sensitizing activity and minimize both the suppression of the thyroid axis and triglyceride elevations | – | – | – | – | – | –
C/C(=C/C=C/C(C)=C/C(=O)O)c1cc(C(C)(C)C)cc(C(C)(C)C)c1OCC(F)F [Compound L13] | maintain the desirable insulin sensitizing activity and minimize both the suppression of the thyroid axis and triglyceride elevations | 54% | 109% | – | – | – | –
CCOc1c(\C(C)=C/C=C/C(C)=C/C(=O)O)cc(C(F)(F)C(F)(F)F)cc1C(C)C [Compound L15] | maintain the desirable insulin sensitizing activity and minimize both the suppression of the thyroid axis and triglyceride elevations | 80% | 156% | 1% | 6 nM | 44% | PPARγ CV-1 (%) Synergy (RXRα:PPARγ heterodimer): 99%
CCc1cc(-c2ccsc2/C=C/C(C)=C/C(=O)O)c(OCCCC(F)(F)F)c(C(C)(C)C)c1 [Compound L16] | maintain the desirable insulin sensitizing activity and minimize both the suppression of the thyroid axis and triglyceride elevations | 37% | 79% | 2% | – | 1% | PPARγ CV-1 (%) Synergy (RXRα:PPARγ heterodimer; [3]): 64%; Ki (RXRα): 2 nM
CCc1cc(-c2ccsc2/C=C/C(C)=C/C(=O)O)c(OCCCF)c(C2CCCC2)c1 [Compound L17] | maintain the desirable insulin sensitizing activity and minimize both the suppression of the thyroid axis and triglyceride elevations | 29% | 75% | 4% | – | 3% | PPARγ CV-1 (%) Synergy (RXRα:PPARγ heterodimer; [3]): 88%; Ki (RXRα): 8 nM
CCC(C)(C)c1cc(\C(C)=C/C=C/C(C)=C/C(=O)O)c(OCC(F)F)c(C(C)(C)CC)c1 [Compound L18] | maintain the desirable insulin sensitizing activity and minimize both the suppression of the thyroid axis and triglyceride elevations | 45% | 134% | 1% | 29 nM | 2% | PPARγ CV-1 (%) Synergy (RXRα:PPARγ heterodimer; [3]): 69%
C/C(=C/C=C/C(C)=C/C(=O)O)c1cc(-c2ccccc2F)cc(C(C)C)c1OCC(F)F [Compound L19] | maintain the desirable insulin sensitizing activity and minimize both the suppression of the thyroid axis and triglyceride elevations | 68% | 187% | 2% | 1 nM | 3% | PPARγ CV-1 (%) Synergy (RXRα:PPARγ heterodimer): 47%
C/C(=C/C=C/C(C)=C/C(=O)O)c1cc(C(C)(C)C)cc(C(C)(C)C)c1OCC(F)(F)F [Compound L23] | – | 53% | – | 7% | 27 nM | 1% | –
C/C(=C\c1ccc(C(=O)O)cc1)c1ccc2c(c1)C(C)(C)CCC2(C)C [TTNPB, (E)-4-[2-(5,6,7,8-tetrahydro-5,5,8,8-tetramethyl-2-naphthalenyl)-1-propenyl]benzoic acid, reference compound] | – | – | – | – | – | – | Emax (RXRα:RAR heterodimer; CV-1, read-out: RXRα:RAR Heterodimer Cotransfection Assay Agonist Efficacy (%)): 115%; agonist activity on the RXR:RAR heterodimer (RXRα:RAR heterodimer; compound alone): strongly transactivate
CN(C)C(=N)N=C(N)N [metformin, reference compound] | – | – | – | – | – | – | efficacy over 3 subsequent weeks (db/db mouse; 7 week old db/db mice, 300 mg/kg daily oral gavage): decreases; plasma glucose (db/db mouse; 7 week old db/db mice, 300 mg/kg daily oral gavage, maximum effect after first week): lowers plasma glucose
